In patent publication EP1743636A1, “Combination of a substituted pyrazoline compound and a drug used in food-related disorders” (LABORATORIOS DEL DR. ESTEVE, S.A., priority 2005, dated 2007):
Read-outs that look alike come from different tables or passages of the source.

Key:
Male NMRI mice [1] = assay: Mouse tetrad model: hot plate analgesia; format: in vivo; settings: for Antagonistic Effect A: Hot-Plate test: 5 mg/kg i.v. prior to Win 55212-2 in a dose of 1,25mg/kg i.v.; for Agonistic effect A: Hot-Plate test: 5 mg/kg i.v., measured 15 minutes after injection
Text: (§1) Substances with affinity for cannabinoid receptors are known to produce a wide range of pharmacological effects. It is also known that intravenous administration of a substance with affinity for cannabinoid receptors in mice produces analgesia , hypothermia, sedation and catalepsy. Individually, none of these effects can be considered as proof that a tested substance has affinity for cannabinoid-receptors, since all of these effects are common for various classes of centrally active agents. However, substances, which show all of these effects, i.e. substances that are active in this so-called tetrad model are considered to have affinity for the cannabinoid receptors. It has further been shown that cannabinoid receptor antagonists are higly effective in blocking the effects of a cannabinoid agonist in the mouse tetrad model.
(§2) The tetrad model is described, for example, in the publication of A. C. Howlett et al, International Union of Pharmacology XXVII. Classification of Cannabinoid Receptors, Pharmacol Rev 54, 161-202, 2002 and David R. Compton et al., "In-vivo Characterization of a Specific Cannabinoid Receptor Antagonist (SR141716A) :Inhibition of Tetrahydrocannbinol- induced Responses and Apparent Agonist Activity", J. Pharmacol. Exp. Ther. 277 , 2, 586-594, 1996. The corresponding parts of the description are hereby incorporated by reference. […]
(§3) Before testing in the behavioral procedures given below, mice are acclimatized to the experimental setting. Pre-Treatment control values are determined for analgesia hot plate latency (in seconds), rectal temperature, sedation and catalepsy.
(§4) In order to determine the agonistic activty of the substance to be tested, the mice are injected intravenously with the substance to be tested or the vehicle alone. 15 minutes after injection, latency in hot plate analgesia is measured. Rectal temperature, sedation and catalepsy are measured 20 minutes after injection.
(§5) In order to determine the antagonistic activity the identical procedure is used as for the determination of the agonistic effects, but with the difference that the substance to be evaluated for its antagonistic activity is injectected 5 minutes before the intravenous injection of 1.25 mg/kg Win-55,212 a known cannabinoid-receptor agonist.
The hot plate analgesia is determined according to the method described in Woolfe D. et al. "The evaluation of analgesic action of pethidine hydrochloride (Demerol)", J. Pharmacol. Exp. Ther. 80, 300-307,1944. […]
The mice are placed on a hot plate (Harvard Analgesimeter) at 55 ± 0.5 °C until they show a painful sensation by licking their paws or jumping and the time for these sensations to occur is recorded. This reading is considered the basal value (B). […]
(§6) The determinination of cannabinoid activity in-vivo was determined as described above. […]

Male NMRI mice [2] = assay: Mouse tetrad model: hypothermia; format: in vivo; settings: for Antagonistic Effect B: Hypothermia: 5 mg/kg i.v. prior to Win 55212-2 in a dose of 1,25mg/kg i.v.; for Agonistic effect B: Hypothermia: 5 mg/kg i.v., measured 20 minutes after injection
Text: as §1, §2, §3, §4, §5
Hypothermia is determined according to the method described in David R. Compton et al. "In-vivo Characterization of a Specific Cannabinoid Receptor Antagonist (SR141716A) Inhibition of Tetrahydrocannbinol- induced Responses and Apparent Agonist Activity", J. Pharmacol Exp Ther. 277 , 2, 586-594, 1996. […]
The base-line rectal temperatures are determined with a thermometer (Yello Springs Instruments Co., Panlabs) and a thermistor probe inserted to 25mm before the administration of the substance to be tested. […]

[3] = biological target: T1, transfected human CB2 receptors (Homo sapiens, UniProt P34972); assay: In-vitro determination of affinity to CB2 receptor (radioligand [3H]-CP55940); format: binding; settings: for Ki: radioligand [3H]-CP55940; for inhibition at 1 µM: read-out: CB2-Receptor % Inhibition 10^-6 M
T1 construct: purchased Receptor Biology, Inc
T1 sequence (P34972 whole entry): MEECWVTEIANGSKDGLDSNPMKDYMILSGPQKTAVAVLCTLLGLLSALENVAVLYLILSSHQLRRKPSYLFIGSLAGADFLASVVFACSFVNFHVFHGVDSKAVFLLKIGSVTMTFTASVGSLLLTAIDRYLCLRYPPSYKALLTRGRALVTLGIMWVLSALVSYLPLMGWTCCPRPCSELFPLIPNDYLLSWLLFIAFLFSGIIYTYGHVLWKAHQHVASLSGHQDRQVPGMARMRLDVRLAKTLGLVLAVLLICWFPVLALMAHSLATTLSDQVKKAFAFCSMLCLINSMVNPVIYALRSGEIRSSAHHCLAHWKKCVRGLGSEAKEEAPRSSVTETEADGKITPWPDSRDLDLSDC
Description: (§7) The in-vitro determination of the affinity of the substituted pyrazoline compounds to CB1/CB2-Rezeptors is carried out as described in the publication of Ruth A. Ross, Heather C. Brockie et al., "Agonist-inverse agonist characterization at CB1 and CB2 cannabinoid receptors of L-759633, L759656 and AM630", British Journal of Pharmacology, 126, 665-672, (1999), whereby the transfected human CB1 and CB2 receptors of Receptor Biology, Inc. are used. The radioligand used for both receptors is [^3H]-CP55940. The respective parts of the description is hereby incorporated by reference and forms part of the present disclosure. The affinity of the inventive substituted pyrazoline compounds to CB1/CB2 receptors was determined as described above.

Male NMRI mice [4] = assay: Mouse tetrad model: sedation and ataxia; format: in vivo; settings: for Antagonistic Effect D: Sedation: 5 mg/kg i.v. prior to Win 55212-2 in a dose of 1,25mg/kg i.v.; for Agonistic effect D: Sedation: 5 mg/kg i.v., measured 20 minutes after injection
Text: as §1
The tetrad model is described, for example, in the publication of A. C. Howlett et al, International Union of Pharmacology XXVII. Classification of Cannabinoid Receptors, Pharmacol Rev 54, 161-202, 2002 and David R. Compton et al., "In-vivo Characterization of a Specific Cannabinoid Receptor Antagonist (SR141716A) :Inhibition of Tetrahydrocannbinol- induced Responses and Apparent Agonist Activity", J. Pharmacol. Exp. Ther. 277 , 2, 586-594, 1996. The corresponding parts of the description are hereby incorporated by reference.
Male NMRI mice with a weight of 20-30 g (Harlan, Barcelona, Spain) are used in all of the following experiments.
as §3, §4, §5
Sedation and ataxia is determined according to the method described in Desmet L. K. C. et al. "Anticonvulsive properties of Cinarizine and Flunarizine in Rats and Mice", Arzneim. -Forsch. (Frug Res) 25, 9, 1975. […]
The percentage of sedation is determined according to the formula: %of sedation = arithmetic mean/3 × 100 [formula]
as §6

[5] = biological target: T2, transfected human CB1 receptors (Homo sapiens, UniProt P21554); assay: In-vitro determination of affinity to CB1 receptor (radioligand [3H]-CP55940); format: binding; settings: for inhibition at 1 µM: read-out: CB1-Receptor % Inhibition 10^-6 M
T2 construct: purchased Receptor Biology, Inc
T2 sequence (P21554 whole entry): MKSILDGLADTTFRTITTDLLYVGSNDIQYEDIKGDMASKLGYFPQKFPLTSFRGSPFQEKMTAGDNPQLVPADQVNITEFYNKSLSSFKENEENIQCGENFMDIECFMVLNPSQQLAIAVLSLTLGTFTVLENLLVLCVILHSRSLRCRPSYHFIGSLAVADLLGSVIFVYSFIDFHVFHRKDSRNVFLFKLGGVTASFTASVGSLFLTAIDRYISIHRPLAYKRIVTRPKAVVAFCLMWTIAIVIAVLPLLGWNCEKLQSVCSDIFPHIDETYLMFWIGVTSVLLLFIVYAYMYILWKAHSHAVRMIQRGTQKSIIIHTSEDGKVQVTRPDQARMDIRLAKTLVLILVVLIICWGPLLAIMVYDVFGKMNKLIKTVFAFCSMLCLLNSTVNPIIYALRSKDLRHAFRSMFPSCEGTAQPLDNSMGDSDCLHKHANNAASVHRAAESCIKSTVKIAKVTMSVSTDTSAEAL
Description: as §7

Male NMRI mice [6] = assay: Mouse tetrad model: catalepsy; format: in vivo; settings: for Antagonistic Effect C: Catalepsy: 5 mg/kg i.v. prior to Win 55212-2 in a dose of 1,25mg/kg i.v.; for Agonistic effect C: Catalepsy: 5 mg/kg i.v., measured 20 minutes after injection
Text: as §1, §2, §3, §4, §5
Catalepsy is determined according to the method described in Alpermann H. G. et al. "Pharmacological effets of Hoe 249: A new potential antidepressant", Drugs Dev. […]
The cataleptic effect of the substance to be tested is evaluated according to the duration of catalepsy, whereby the animals are placed head downwards with their kinlegs upon the top of the wooden block. […]
The percentage of catalepsy is determined according ot the following formula: %Catalepsy = arithmetic mean/6 × 100 [formula] […]

Compound | Antagonistic Effect A: Hot-Plate test (Male NMRI mice [1]) | Agonistic effect A: Hot-Plate test (Male NMRI mice [1]) | Antagonistic Effect B: Hypothermia (Male NMRI mice [2]) | Agonistic effect B: Hypothermia (Male NMRI mice [2]) | Ki [3] [nM] | inhibition at 1 µM [3] [%] | Antagonistic Effect D: Sedation (Male NMRI mice [4]) | Agonistic effect D: Sedation (Male NMRI mice [4]) | Ki [5] [nM] | inhibition at 1 µM [5] [%] | Antagonistic Effect C: Catalepsy (Male NMRI mice [6]) | Agonistic effect C: Catalepsy (Male NMRI mice [6]) | Ki ([5]; radioligand [3H]-CP55940, read-out: CB1-Receptor Ki) [nM]
O=C(NN1CCCCC1)C1=NN(c2ccc(Cl)cc2Cl)C(c2ccc(Cl)cc2)C1 (stereo not drawn) [Example 1, N-piperidinyl-5-(4-chlorophenyl)-1-(2,4-dichlorophenyl)-4,5-dihydro-1H-pyrazole-3-carboxamide] | 74 | 0 | 100 | 0 | > 1000 | 33 | 100 | 0 | < 25 | 93 | 100 | 0 | –
O=C(C1=NN(c2ccc(Cl)cc2Cl)C(c2ccc(Cl)cc2)C1)N1CCCCC1 (stereo not drawn) [Example 5, [5-(4-Chloro-phenyl)-1-(2,4-dichloro-phenyl)-4,5-dihydro-1H-pyrazol-3-yl]-piperidin-1-yl-methanone] | 50 | 0 | 40 | 50 | ~1000 | 54 | 20 | 0 | – | 79 | 20 | 0 | 111
